Entries after “also recorded” stand apart in the source; their conditions may differ. Where a SMILES comes first, the peptide text is derived from it.
Assays:
[1] = test system: senescent and non-senescent WI-38 fibroblasts; type: cell-based, human; conditions: total doses 0 to 100 μM on 3 consecutive days, read after 7 days, listed as SEQ ID NO: 11
Method: WI-38 cells (ATCC # CCL-75, a diploid primary human fibroblast adherent cell line derived from fetal lung tissue) were treated with a chemotherapy agent, 100 nM Doxorubicin twice every other day to induce senescence. […] Later these cells were used for experiments comparing them to their non-Doxorubicin (non-senescent) treated counterparts. Senescent and non-senescent WI-38 fibroblasts were plated for XTT viability assays. 7000 senescent (obtained as described above) and 2000 non-senescent WI-38 fibroblasts were plated in 96-well plates incubated. The cells were treated with mock (PBS) or the Senolytic Peptide (SEQ ID NO: 11) at total doses ranging from 0 to 100 μM. The mock and peptide treatments were carried out for 3 consecutive days (24, 48 and 72 hours) after plating. After treatment period, the cells were incubated for 7 days until XTT-based viability was analyzed according to the manufacturer's instructions. […] The Senolytic Peptide (SEQ ID NO: 2) was ordered from Chinese Peptide Company with TFA removal.

BALB/c mice = assay: Acute Sytemic Toxicity Test (ISO 10993-11); type: in vivo; set-up: hematological parameters, AST, ALT, ALP levels and gross pathology: dose or concentration left out as unconfirmed
Method: Senolytic Peptides were evaluated for toxicity according to Acute Sytemic Toxicity Test (ISO 10993-11). This study was performed in strict accordance with the protocol approved by the TUBITAK-MAM Animal Ethics Committee. All the mice used in this study were of a BALB/c background at 8-12 weeks of age. All mice were kept in group housing until the start of the experiment after which they were placed in separate cages (5 mice per cage). […] Control and Senolytic Peptide (SEQ ID NO: 2) injected mice were sacrificed 24 hours later for pathological examination. […] Blood samples were subsequently collected for determination and analysis of hematological and biochemical parameters. Plasma alanine aminotransferase (ALT), aspartate aminotransferase (AST), alkaline phosphatase (ALP) activities and blood urea, glucose, triglyceride levels were determined, inter alia, full hematological parameters.

Molecule	viability of senescent vs non-senescent cells (XTT) [1]	toxicity to the physical appearance of the mice (BALB/c mice; intravenous single injection, 1, 10, 50 and 100 mg/kg, within 24 hours)	hematological parameters, AST, ALT, ALP levels and gross pathology (BALB/c mice; intravenous single injection, 24 hours, even at higher doses)
TRQARRNRRRRWRERQR [ID 11]	selective decrease in the viability of senescent cells but not non-senescent cells; also recorded: selectively decreased the viability of senescent cells but not non-senescent cells	–	–
N=C(N)NCCC[C@H](NC(=O)[C@H](CCCNC(=N)N)NC(=O)[C@H](CCCNC(=N)N)NC(=O)[C@H](CCC(N)=O)NC(=O)[C@H](CCCNC(=N)N)NC(=O)[C@H](CCCNC(=N)N)NC(=O)[C@H](CCCCN)NC(=O)[C@H](CCCCN)NC(=O)[C@H](CCCNC(=N)N)NC(=O)CNC(=O)[C@H](Cc1ccc(O)cc1)NC(=O)[C@H](CCCNC(=N)N)NC(=O)[C@H](CCCNC(=N)N)NC(=O)[C@H](CCCNC(=N)N)NC(=O)[C@H](CCC(N)=O)NC(=O)[C@H](CCCNC(=N)N)NC(=O)[C@H](CCCNC(=N)N)NC(=O)[C@H](CCCCN)NC(=O)[C@H](CCCCN)NC(=O)[C@H](CCCNC(=N)N)NC(=O)CNC(=O)[C@H](Cc1ccc(O)cc1)NC(=O)[C@H](CCCNC(=N)N)NC(=O)[C@H](CCCNC(=N)N)NC(=O)[C@H](CCCNC(=N)N)NC(=O)[C@H](CCC(N)=O)NC(=O)[C@H](CCCNC(=N)N)NC(=O)[C@H](CCCNC(=N)N)NC(=O)[C@H](CCCCN)NC(=O)[C@H](CCCCN)NC(=O)[C@H](CCCNC(=N)N)NC(=O)CNC(=O)[C@@H](N)Cc1ccc(O)cc1)C(=O)O [ID 2] (H-YGRKKRRQRRRYGRKKRRQRRRYGRKKRRQRRR-OH; N-terminus and C-terminus assumed)	–	No toxicity to the physical appearance of the mice was observed	no toxicity

— patent US20200031873A1, “REPURPOSING CELL PENETRATING PEPTIDES AND THEIR NOVEL DERIVATIVES AND IOPROMIDE AND IODO-ARYL CARBONATES FOR TREATMENT OF SENESCENCE-RELATED DISEASES AND DISORDERS” (Eternans Limited, priority 2018, published 2020)
